Laboratory results taken from patent US20230338398A1, “USE OF DELTA-8-THC TO TREAT INFLAMMATORY AND AUTOIMMUNE DISEASES” (UNIVERSITY OF SOUTH CAROLINA, priority 2022, published 2023).
“Also recorded” adds a separate entry of the source.

How the values were obtained:
[1] = test system: brain-infiltrating CD4+ T cells; assay: qRT-PCR of brain-infiltrating CD4+ T cells from EAE mice; assay type: in vivo, C57BL/6 mice
Experimental: (§1) EAE is a model for human Multiple Sclerosis. EAE was induced in 6-8 weeks old Female C57BL/6 mice through subcutaneous immunization with 100 μl of 150 μg MOG35-55 peptide (PolyPeptide Laboratories San Diego, CA, USA) along with heat killed Mycobacterium Tuberculosis 8 mg/ml (strain H37Ra) (BD, Franklin Lakes, NJ, USA), emulsified in PBS and complete Freund's adjuvant (CFA) (Fisher, Hampton, NH, USA). Mice also received two subsequent doses of 200 and 400 ng of pertussis toxin intraperitoneally on day 0 and 2, respectively (List Biological Laboratories, Campbell, CA, USA). Beginning on day 10, mice received a 100 μL intraperitoneal injection containing either a vehicle (sterile corn oil (CO) with 2% DMSO v/v) or a treatment suspension (10 mg/kg delta-8-THC in sterile CO with 2% DMSO v/v) every day till the end of the experiment. The control mice received the appropriate vehicle. On the appearance of the clinical symptoms, the animals were provided with food and water (Boost and Hydrogel) in the cage bedding to ensure their access to essential nutrients. During the experiment, animals were weighed for weight change and scored for disease progression on a daily basis. The mean body weight and clinical scores were calculated daily for each group. Clinical scores were recorded as follows: 0, healthy; 1, tail atony; 2, partial paralysis of hind limbs; 3, complete paralysis of hind limbs in combination with partial front limb paralysis; 4, tetraplegia; 5, moribund.
(§2) Mononuclear cells isolated from brain were labeled with Phycoerythrin-conjugated (PE-Conjugated) anti-CD4 antibody purchased from Biolegends. […]
(§3) To analyze gene expression, total RNA was purified from brain infiltrating CD4^+ cells using miRNeasy micro kit according to the manufacturer's instructions. RNA purity and concentration were measured by using Nanodrop spectrophotometer from Thermoscientific. […] The results obtained from qRT-PCR were calculated using delta delta Ct (ΔΔCt) method.

[2] = test system: Experimental Autoimmune Encephalomyelitis (EAE); assay: Experimental Autoimmune Encephalomyelitis (EAE) model: clinical score and body weight; assay type: in vivo; conditions: EAE C57BL/6 mice, 10 mg/kg intraperitoneally every day from day 10, vs vehicle
Experimental: 6-8 weeks old Female C57BL/6 mice were purchased from Jackson Laboratory (Bar Harbor, ME). Animals colonies were maintained in accordance with Federal regulations and guidelines set by the animal facility of the University of South Carolina Institutional Animal Care and Use Committee (IACUC). Mice were housed in a single room under controlled temperature (22° C.), identical SPF, 50% relative humidity, and photoperiods (12:12 hours light/dark cycle). Animals were allowed unlimited access (ad libitum feeding) to autoclaved drinking water and a standard irradiated soy-free mouse chow. The health of the animals was monitored daily by the veterinarian in the animal facility.
as §1, with “Beginning on day 10, mice received a 100 μL intraperitoneal injection containing either a vehicle (sterile corn oil (CO) with 2% DMSO v/v) or a treatment suspension (10 mg/kg delta-8-THC in sterile CO with 2% DMSO v/v) every day till the end of the experiment. The control mice received the appropriate vehicle. On the appearance of the clinical symptoms, the animals were provided with food and water (Boost and Hydrogel) in the cage bedding to ensure their access to essential nutrients.” left out
The data were expressed as mean±SEM calculated using GraphPad Prism 9 (GraphPad Inc, La Jolla, CA) and the data sets for all experiments represent three to four experimental replicates per group. […]

CB1 receptors = CB1 receptors (Homo sapiens, UniProt P21554); conditions: CB1 receptors located in the CNS; cited from earlier work
[3] = test system: immune cells from brain and spleens; assay: Flow cytometry of immune cells from brain and spleens of EAE mice; assay type: in vivo, C57BL/6 mice
Experimental: as §1
BD FACSCelesta flow cytometer was used to quantify the phenotypes of immune cells from brain and spleens. Cells were stained with fluorescently labeled monoclonal antibodies purchased from Biolegend (San Diego, CA). The data obtained from flow cytometer was analyzed on FlowJo software.

[4] = test system: brain infiltrating mononuclear cells; assay: miRNA sequencing (miRNASeq) of brain infiltrating mononuclear cells of EAE mice
[5] = test system: brain-infiltrating CD4+ T cells; assay: miRNA microarray of CD4+ T cells isolated from the brain of EAE mice; assay type: in vivo, C57BL/6 mice
Experimental: as §1, §2, §3

[6] = CD4+ T cells isolated from the brain of EAE mice, miRNA microarray

Sequence of CB1 receptors (P21554 whole entry): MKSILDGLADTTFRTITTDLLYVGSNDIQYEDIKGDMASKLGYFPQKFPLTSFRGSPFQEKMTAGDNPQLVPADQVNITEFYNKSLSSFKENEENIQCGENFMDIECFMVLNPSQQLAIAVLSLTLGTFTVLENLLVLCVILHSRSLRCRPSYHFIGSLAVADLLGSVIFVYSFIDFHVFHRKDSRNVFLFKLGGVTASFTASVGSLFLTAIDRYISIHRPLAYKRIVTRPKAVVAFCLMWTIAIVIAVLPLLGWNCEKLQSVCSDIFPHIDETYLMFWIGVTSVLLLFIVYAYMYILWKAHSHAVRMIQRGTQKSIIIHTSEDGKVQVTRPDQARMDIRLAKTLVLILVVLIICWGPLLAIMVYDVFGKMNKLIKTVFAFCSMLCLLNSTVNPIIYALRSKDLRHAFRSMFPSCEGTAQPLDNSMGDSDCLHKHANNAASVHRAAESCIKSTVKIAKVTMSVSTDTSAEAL

CCCCCc1cc(O)c2c(c1)OC(C)(C)[C@@H]1CC=C(C)C[C@@H]21 [Δ-8-THC, delta-8-tetrahydrocannabinol]
Foxp3 expression [1]: increase | IL-10 expression [1]: increased | TGF-β expression [1]: increased | body weight [2]: increase; also recorded: attenuated | disease clinical scores / paralysis [2]: highly significant reduction; also recorded: attenuated; also recorded: decreased levels of paralysis | body weight ([2]; listed as Δ8-THC): gain weight | activity at CB1 receptors (CB1 receptors): partial agonist | IL-17+ CD4+ T cells in the brains ([3]; brain): decrease | RORγt+ (Th17) cells in the brains ([3]; brain): decrease | Th1 cells (T-bet) in the brain ([3]; brain, expression of T-bet): not in the brain; also recorded: decrease | IL-17+ CD4+ T cells in the brains ([3]; brain, listed as Δ8-THC): decreased | RORγt+ (Th17) cells in the brains ([3]; brain, listed as Δ8-THC): decreased | percentage of macrophages in the brain ([3]; brain-infiltrating pro-inflammatory macrophages): decreased | percentage of CD4+ T cells in the brain ([3]; flow cytometry, brain): decrease | percentage of CD4+ T cells in the spleens ([3]; flow cytometry, spleen): decrease | IL-17+ CD4+ T cells in the spleens ([3]; spleen): decreased | RORγt+ (Th17) cells in the spleens ([3]; spleen): decrease | Th1 cells expressing IFN-gamma in the spleens ([3]; spleen): decrease | percentage of macrophages in the spleens ([3]; spleen): decrease | Th1 cells (T-bet) in the spleen ([3]; spleen, expression of T-bet): decrease | RORγt+ (Th17) cells in the spleens ([3]; spleen, listed as Δ8-THC): decreased | miRNA expression (miRNASeq) [4]: regulates a distinct set of miRNAs compared to Δ-9-THC; also recorded: unique miRNA signature profile distinct from Δ-9-THC; also recorded: differential expression of miRNAs | expression of miR-21, miR-27a, miR-29a, miR-30a, miR-31, miR-146a, miR-155, and miR-326 [5, 6]: downregulated | expression of miR-let7, miR-130a, miR-181a, miR-328a and miR-448 [5, 6]: upregulating | miR expression profile ([5]; brain-infiltrating CD4+ T cells from EAE mice, compared to the controls): distinct signature profile
